{
  "source": "patent US9839674B2",
  "about": "“Methods of inducing indolamine 2,3—dioxygenase (IDO)” (IDOGEN AB, priority 2010, dated 2017)",
  "key": {"[1]": {"system": "IDO1 expression in THP-1 cells", "experiment": "IDO1 expression in THP-1 cells by PCR / quantitative real-time PCR", "format": "cell-based, human", "details": "for IDO1 expression (relative value): zebularine 100 uM, interferon gamma 200 IU/ml, alone or both together, FIG. 1", "protocol": "(§1) THP-1 (ATCC: TIB-202) is a human monocytic cell line that originates from an acute monocytic leukemia. It has the phenotype of monocytes but can be differentiated to a more dendritic phenotype. In the current study, the THP-1 cells were in vitro passaged in RPMI 1640 medium supplemented with 5% or 10% FCS, 10 mM Hepes, 1 mM Sodium pyruvate, and 50 ug/ml gentamicin (R5 or R10 medium respectively). The cell density was adjusted to 200 000 cells per ml, and the cultures were incubated for four to seven days at 37° C. with 10% CO2 in a humidified incubator. The substance, or combination of substances, being studied, were added to the medium at specified time points and in the case of IFN-gamma removed from medium as indicated. 96-168 hours after initiation of treatment, the IDO expression was assessed by PCR or by Quantitative PCR (Roche). RNA was extracted from cells cultured in flasks or six-well plates using Trizol reagent according to Invitrogen's protocol. Residual DNA was removed through Rnase free DNase (Roche Applied Science) treatment. Quality and quantity of the isolated RNA was measured by spectrophotometer and gel electrophoresis.\nQuantitative real-time PCR analyses (qRT-PCR) were performed using Super-Script III Platinum Two-Step qRT-PCR Kit with SYBR Green (Invitrogen). A total of 100-500 ng total RNA was used in a 20 ul RT reaction using a mixture of polydT and random hexamer primers. The cDNA obtained was diluted to a total volume of 80 ul and stored at −20° C. The primer sequences for the different genes were designed using Gene Fisher software support (G. Giegerich, F. Meyer, C. Schleiermacher, ISMB-96). The primers used for amplification of the IDO gene were: Forward: SEQ ID NO: 5—5′-[…]-3′, Primer sequences, Reverse: SEQ ID NO: 6—TTTCACA-CAGGCGTCATAAGCT-3′.\nHypoxanthine guanine phosphoribosyl transferase (HPRT) HPRT Forward: SEQ ID NO: 7—5′-[…]-3′, HPRT Reverse: SEQ ID NO: 8—5′-[…]-3′ according to the cDNA sequence, were used. The qRT-PCR was performed in 20 ul reaction consisting of 2 ul diluted cDNA (12.5 ng), 0.3 uM of each primer, 1 ul bovine serum albumin (50 ug/ml), and 10 ul Platinum SYBR Green qRT-PCR superMix-UDG. The amplification of IDO was carried out in a Light Cycler (Roche Molecular Biochemicals) with the following thermal profile: Platinum SYBR Green qRT-PCR superMix-UDG incubation at 50° C. for 2 min, then denaturing at 95° C. for 5 min, followed by 45 cycles at 94° C. for 2 s, 58° C. for 10 s, and 72° C. for 14 s. The amplification of HPRT was carried out as follows, UDG incubation at 50° C. for 2 min, denaturing at 95° C. for 5 min, followed by 45 cycles at 94° C. for 2 s, 55° C. for 10 s, and 72° C. for 14 s. After amplification a melting curve analysis was performed. The qRT-PCR experiments were always run in triplicate."}, "[2]": {"system": "allotransplanted Lewis rat pancreatic islets", "experiment": "Rejection of allotransplanted pancreatic islets beneath the kidney capsule (blood glucose follow up)", "format": "in vivo", "details": "Fischer 344 rats, 225 mg/kg intraperitoneal daily for 14 days starting 6-8 days after transplantation, FIG. 16", "protocol": "Pancreatic islets were isolated from the pancreas of Lewis rats by established technique. After culture at 37° C. over night, 500-1200 islets were implanted beneath the kidney capsule of adult (11-14 weeks old) Fischer 344 rats that were confirmed hyperglucemic (blood glucose >20 mMol/L) after having received a single dose of 35-40 mg/kg intraperitoneally of Streptozotocine, which is selectively toxic to the insulin producing beta cells present in the pancreatic islets. […] The two exceptional rats that maintained a normal blood sugar were subjected to nephrectomy 40 and 43 days after transplantation to check whether their normal blood glucose was a result of unexpected sustained survival of the grafted islets (in which case their blood sugar should promptly increase upon removal of the graft) or was due to a recovery of some Streptozotocine-damaged pancreatic islets (in which case their blood sugar should stay normal despite removal of the graft). […] Twenty two days after transplantation only 1/10 of the zebularine treated rats had rejected the graft as indicated by a normal blood sugar in all but this single rat at completion of the treatment 20-22 days after transplantation and in all of 7 analyzed >1 week after the zebularine treatment was stopped (FIG. 16)."}, "[3]": {"system": "IDO1 expression in THP-1 cells", "experiment": "IDO1 expression in THP-1 cells by reverse transcriptase PCR (bands), kinetics", "format": "cell-based, human", "protocol": "as §1\nThe sequences of forward primers and reverse primers for the human IDO-1 gene analyzed and the house-keeping gene HPRT respectively, were: IDO-1 forward: 5′-[…]-3′, reverse: 5′-C AGAC AAAT AT A TGCGAAGAAC; HPRT Forward: 5′-[…]-3′, HPRT Reverse: 5′-ACTAAGCAGATGGCCAC AGAA-3′. The PCR conditions were set as follows: 1 denaturing cycle at 94° C. for 2 min followed by 40 cycles (for the IDO-1) or 30 cycles (for the HPRT) at 94° C. for 15 s, 53° C. for 30 s, and 72° C. for 30 s with a final extension reaction at 72° C. for 5 min.\nMaterials and methods used were the same as described in Example 1 above. […] In panel B, the THP-1 cells were given zebularine alone during 5 days and a weak band was detected. […] In panel C the THP-1 cells were exposed to zebularine for 6 days and interferon gamma was given during 24 hours after four days and the cells were harvested after a total of 6 days. […]"}, "[4]": {"details": "IFN-g 100 iu/ml or IFN-A alone for 24 h (day 4), FIG. 11"}, "[5]": {"details": "IFN-g 100 iu/ml or interferon A 25 ng/ml alone for 24 h (day 4), FIG. 12"}},
  "data": [
    {"molecule": "O=c1ncccn1[C@@H]1O[C@H](CO)[C@@H](O)[C@H]1O", "note": "[zebularine, reference compound]", "values": [
      {"measurement": "IDO1 expression (relative value)", "setting": "[1]", "result": 9},
      {"measurement": "rats that had rejected the graft twenty two days after transplantation", "setting": "[2]", "result": "1/10"}
    ]},
    {"molecule": "interferon gamma: interferon gamma (Sigma), IDO inducer", "values": [
      {"measurement": "IDO1 expression after 168 h of culture", "setting": "[1]; [4]", "result": "minimal"},
      {"measurement": "IDO1 expression after 168 h of culture", "setting": "[1]; [5]", "result": "minimal"},
      {"measurement": "course of IDO1 induction after the first 24 hours", "setting": "[1]; interferon gamma 200 IU/ml initial 24 h, alone or with zebularine 100 uM for the entire period, harvest 48-96 h, FIG. 5", "result": "not sustained and dropped rapidly"},
      {"measurement": "IDO1 expression after 10, 12 or 14 days of culture", "setting": "[1]; interferon gamma 200 iu/ml alone for 24 h on day 4, FIG. 10", "result": "minimal"},
      {"measurement": "IDO1 induction after 24 hours", "setting": "[1]; zebularine 100 uM or interferon gamma 200 IU/ml alone, harvest 24 h, FIG. 5", "result": "strong"},
      {"measurement": "IDO1 expression (relative value)", "setting": "[1]", "result": 80},
      {"measurement": "IDO1 expression (RT-PCR band), panel B", "setting": "[3]; zebularine 5 days, interferon gamma after 3 days for 24 h, tested 24 hours after removal, FIG. 6B", "result": "weak band"},
      {"measurement": "IDO1 expression (RT-PCR band), panel C", "setting": "[3]; zebularine 6 days, interferon gamma 24 hours after four days, harvest after 6 days, FIG. 6C", "result": "almost no IDO1 induction"},
      {"measurement": "IDO1 expression (RT-PCR band), panel A", "setting": "[3]; zebularine four days, interferon gamma added after 3 days, 24 hours before harvest, FIG. 6A", "result": "strong band"}
    ]},
    {"molecule": "interferon A", "values": [
      {"measurement": "IDO1 expression after 168 h of culture", "setting": "[1]; [4]", "result": "minimal"},
      {"measurement": "IDO1 expression after 168 h of culture", "setting": "[1]; [5]", "result": "minimal"}
    ]}
  ]
}
